Test results from patent US11446347B2, “Antithrombotic composition comprising Angelica gigas Nakai extract” (Astrogenesis Co., Ltd., priority 2018, dated 2022).

Tested on: thrombus-induced mouse model
Assay: In-vivo antithrombotic test, Rota-rod, collagen/epinephrine thrombus-induced mouse model
Parameters: species or system ICR mice
Conditions: thrombus induced 90 min after drug, Rota-rod 24 rpm after 15 min
Procedure: As for the experimental animals, 5-week-old female ICR mice provided by YoungBio were stabilized in an animal laboratory at a temperature of 24±1° C., a humidity of 55±5% in a 12-hour day-night cycle for 1 week and used in the experiments.
The change in behavioral capacity was evaluated for the prepared thrombus-induced mouse model using Rota-rod, and the antithrombotic effect of the Angelica gigas Nakai extract was evaluated. The thrombus-induced mouse model was prepared as follows. A 6-week-old ICR mouse (about 20 to 25 g) stabilized as an experimental mouse was prepared, and subjected to Rota-rod training, and the reference value was created three times, and the rotation speed was set to 24 rpm, and objects withstanding without falling at a rotation speed of 300 or more were selected. […] After 15 minutes, Rota-rod testing was repeated 3 times (rotation speed: 24 rpm), and the difference in athletic performance was analyzed by the following Equation: Protection rate (%)=[(Total number of individuals−Number of killed or paralyzed individuals)/Total number of individuals]×100
Number of killed or paralyzed individuals: The number of individuals who fell at a rotation speed of 24 rpm or less in Rota-rod testing at a rotation speed of 150 or less)

Compound: CC(C)=CC(=O)O[C@H]1Cc2cc3ccc(=O)oc3cc2OC1(C)C [Decursin, decursin]
- Number of killed or paralyzed individuals / Number of total individuals (dose 10 mg/kg): 11/18
- Protection (%) (dose 10 mg/kg): 38.9%

Compound: CC(=O)Oc1ccccc1C(=O)O [ASA (Aspirin), acetylsalicylic acid]
- Number of killed or paralyzed individuals / Number of total individuals (dose 100 mg/kg): 11/20
- Protection (%) (dose 100 mg/kg): 45%

Compound: CC1(C)Oc2cc3oc(=O)ccc3cc2C[C@@H]1O [Decursinol, decursinol]
- Number of killed or paralyzed individuals / Number of total individuals (dose 10 mg/kg): 12/19
- Protection (%) (dose 10 mg/kg): 36.8%
